Measurements taken from paper PMC5458078, “Global mapping of CARM1 substrates defines enzyme specificity and substrate recognition” (Nature Communications, 2017).

Tested on: 6xHis-tagged CARM1 EVH1 domain (CARM1 28-140)
Test: FP assay with fluorescein-labelled BAF155 peptide and 6xHis-CARM1 28-140
Type: binding
Conditions: fluorescein-labelled BAF155 peptide 5 nM; protein titrated; 50 mM HEPES pH 7.5, 150 mM NaCl, 0.005% NP-40, 0.5 mM EDTA; 2 h, room temperature; triplicates; ex 485/20 nm, em 528/20 nm
Protocol: The DNA fragment encoding CARM1 residues 28–140 was cloned into pET21a expression vector (Novagen, Madison, WI). DNA construct was transformed into BL21(DE3)pLysS E. coli expression strain. Luria–Bertani media (1–2L) was seeded with 10 ml of overnight starter culture and grown at 37 °C until OD600 nm reached 0.6. Protein expression was then induced with the addition of 0.2 mM isopropyl β-D-1-thiogalactopranoside for 4 h at ambient temperature. Bacterial pellets were then lysed by sonication on ice in lysis buffer (50 mM Tris, pH 7.5, 150 mM NaCl, 0.05% NP-40, supplemented with 1 × protease inhibitor cocktail before use) with 70% amplitude, 30 s on, 30 s off, 10 cycles. […] Protein concentration was then determined using Bradford assay and protein purity was assessed by SDS–PAGE and Coomassie Blue staining.
Fluorescein-labelled BAF155 peptide (constant final concentration at 5 nM) was mixed with titrations of purified recombinant proteins or BSA control in binding buffer (50 mM HEPES, pH 7.5, 150 mM NaCl, 0.005% NP-40, 0.5 mM EDTA) and incubated in dark at room temperature for 2 h. […] Polarization measurements were then corrected for background contributions to the measured intensity by subtracting the parallel and perpendicular intensity readings, from the blank buffer-only wells, from the intensity readings for each data point. […]

With “bovine serum albumin (BSA): bovine serum albumin control” the Fluorescence polarization change was “no change in signal”.
